Assay results as given in PubChem BioAssay AID2060491 (Molecular Pharmacology Branch, DTP, NCI, 2025).

Test system: 857933-349-R-J2-PDC complex spheroids, viability
Assay: Anticancer human tumor 857933-349-R-J2-PDC patient-derived colon adenocarcinoma cell line growth inhibition [GQUAD]
Details: for IC50: curve of first compound; for viability, T/C: stronger effect = lower value; active means viability on the fitted dose curve at most 10% of control; inactive means the rest
Text: DNA G-quadruplex Stabilizer Agents in Combinations in Complex Spheroids
A high-throughput screen of multi-cell type tumor spheroids was designed to identify active combinations of DNA G-quadruplex stabilizer agents and targeted small molecules. Complex spheroids include a stromal component modeled by human endothelial cells (HUVEC) and fibroblasts modeled by human mesenchymal stem cells (MSCs). The concentration ranges selected for each drug and investigational agent were based upon clinically achievable concentrations if the clinical Cmax of the agent was known.
Compounds. The drugs and investigational agents: pidnarulex (CX-5461; NSC782164), APTO-253 (NSC789042), BRACO-19 (NSC847499), peposertib (NSC802822), ceralasertib (NSC780249), elimusertib (NSC800525), camonsertib (NSC841442), AZD-1390 (NSC803789), olaparib (NSC753686), talazoparib (NSC767125), ART-558 (NSC835418), sotorasib (NSC818433), MRTX-1133 (NSC836407), SN-38 (NSC673596), topotecan (NSC609699), etoposide (NSC141540), doxorubicin (NSC123127), gemcitabine (NSC613327), 5-fluorouracil (NSC19893), paclitaxel (NSC125973), vemurafenib (NSC761431), panobinostat (NSC761190), R-306465 (JNJ-16241199; NSC773264), adavosertib (NSC754352), TP-3654 (NSC805149), carboplatin (NSC241240), KSQ-4279 (NSC840948), and staurosporine (NSC755774) were obtained from the National Cancer Institute (NCI) Developmental Therapeutics Program Chemical Repository (34). The FDA-approved anticancer drug set is available from the NCI Developmental Therapeutics Program. […] The stock solutions were prepared in dimethyl sulfoxide (DMSO, Sigma-Aldrich, St. Louis, MO, cat. D2650) at 800-fold the tested concentration and stored at -70 degrees C prior to their use. All drugs and investigational agents were tested over a range starting from a high concentration at or near the clinical Cmax and decreasing in half-log increments. If the clinical Cmax for an agent had not been determined, the highest concentration tested was 10 microM.
2.3 Cell Culture. All cells were maintained in an incubator at 37 degrees C and 5% CO2 with 95% humidity. The PDC lines were cultured according to standard operating procedures established by the NCI PDMR. All PDCs were thawed and cultured in Matrigel-coated flasks prepared with a working solution of 1X Ham's F-12 nutrient mix, without supplementation (Invitrogen, cat. 11765054), 100 U/mL penicillin-streptomycin (Invitrogen, cat. 15140122), and 2.5% Matrigel (Corning Inc., cat. 354248) for the first three passages. The 857933-349-R-J2-PDC line was cultured in 6C/Colon 1B media, which includes advanced DMEM/F-12 (Thermo Fisher Scientific, cat. 12634028), 10 mM HEPES (Thermo Fisher Scientific, cat. 15630080), 1X GlutaMAX supplement (Thermo Fisher Scientific, cat. 35050061), 0.1 mg/mL primocin (InvivoGen, cat. ant-pm-2), 10% defined fetal bovine serum, heat inactivated (HyClone Laboratories Inc., cat. SH30070.03HI), 50% L-WRN conditioned media (ATCC, cat. CRL-3276), 1.25 mM N-Acetyl-L-cysteine (Sigma-Aldrich, cat. A9165), 10 mM nicotinamide (Sigma-Aldrich, cat. N0636), 1X B-27 supplement (Thermo Fisher Scientific, cat. 17504044), 1X N-2 supplement (Thermo Fisher Scientific, cat. 17502048), 10 microM Y-27632 dihydrochloride (Tocris Bioscience, cat. 1254), and 50 ng/mL human EGF recombinant protein (Thermo Fisher Scientific, cat. PHG0311). The 485176-168-R4-J1-PDC line was cultured in Panc media, which includes all 6C/Colon 1B media components plus 100 ng/mL human FGF-10 (Thermo Fisher Scientific, cat. 100-26), 500 nM SB-431542 (Selleckchem, cat. S1067), and gastrin (Tocris, cat. 3006).
[…]

[1] = second compound 0.0316 µM, first compound 0.0316 µM
[2] = second compound 0.0316 µM, first compound 0.316 µM
[3] = second compound 0.1 µM, first compound 0.0316 µM
[4] = second compound 0.1 µM, first compound 0.316 µM
[5] = second compound 0.316 µM, first compound 0.0316 µM
[6] = second compound 0.316 µM, first compound 0.316 µM
[7] = second compound 1 µM, first compound 0.0316 µM
[8] = second compound 1 µM, first compound 0.316 µM
[9] = second compound 3.16 µM, first compound 0.0316 µM
[10] = second compound 3.16 µM, first compound 0.316 µM
[11] = second compound 10 µM, first compound 0.0316 µM
[12] = second compound 10 µM, first compound 0.316 µM
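Further: spheroids exposed to compounds for one week before readout.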
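Wherever viability, T/C is given: percent viability relative to vehicle DMSO wells taken as 100%.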

CC1COCCN1c1cc(C2(O)CC3CCC(C2)O3)c2cnn(-c3ccn[nH]3)c2n1 (centres undefined) + CN(C)c1ccc(Nc2c3ccc(NC(=O)CCN4CCCC4)cc3nc3cc(NC(=O)CCN4CCCC4)ccc23)cc1
9.43 µM: IC50 (second compound 0.0316 µM)
inactive: viability, T/C [1] 104% | viability, T/C (second compound 0.0316 µM, first compound 0.1 µM) 90.6% | viability, T/C [2] 73.8% | viability, T/C (second compound 0.0316 µM, first compound 1 µM) 61.5% | viability, T/C (second compound 0.0316 µM, first compound 3.16 µM) 51.4% | viability, T/C (second compound 0.0316 µM, first compound 10 µM) 50.7% | viability, T/C [3] 97.8% | viability, T/C (second compound 0.1 µM, first compound 0.1 µM) 92.4% | viability, T/C [4] 75.6% | viability, T/C (second compound 0.1 µM, first compound 1 µM) 60.2% | viability, T/C (second compound 0.1 µM, first compound 3.16 µM) 53.8% | viability, T/C (second compound 0.1 µM, first compound 10 µM) 55.4% | viability, T/C [5] 94.1% | viability, T/C (second compound 0.316 µM, first compound 0.1 µM) 82.5% | viability, T/C [6] 74.2% | viability, T/C (second compound 0.316 µM, first compound 1 µM) 52.7% | viability, T/C (second compound 0.316 µM, first compound 3.16 µM) 56.9% | viability, T/C (second compound 0.316 µM, first compound 10 µM) 54.1% | viability, T/C [7] 92.8% | viability, T/C (second compound 1 µM, first compound 0.1 µM) 76% | viability, T/C [8] 71% | viability, T/C (second compound 1 µM, first compound 1 µM) 54.6% | viability, T/C (second compound 1 µM, first compound 3.16 µM) 62.6% | viability, T/C (second compound 1 µM, first compound 10 µM) 50.1% | viability, T/C [9] 88.2% | viability, T/C (second compound 3.16 µM, first compound 0.1 µM) 71.9% | viability, T/C [10] 75.3% | viability, T/C (second compound 3.16 µM, first compound 1 µM) 55% | viability, T/C (second compound 3.16 µM, first compound 3.16 µM) 59.4% | viability, T/C (second compound 3.16 µM, first compound 10 µM) 50% | viability, T/C [11] 70.7% | viability, T/C (second compound 10 µM, first compound 0.1 µM) 70.2% | viability, T/C [12] 63.5% | viability, T/C (second compound 10 µM, first compound 1 µM) 54.9% | viability, T/C (second compound 10 µM, first compound 3.16 µM) 51.7% | viability, T/C (second compound 10 µM, first compound 10 µM) 40.8%
3.11 µM: IC50 (second compound 10 µM)
> 10 µM: IC50 (second compound 0.1 µM) | IC50 (second compound 0.316 µM) | IC50 (second compound 1 µM) | IC50 (second compound 3.16 µM)

Cn1ncnc1[C@H]1c2n[nH]c(=O)c3cc(F)cc(c23)N[C@@H]1c1ccc(F)cc1 + CN(C)c1ccc(Nc2c3ccc(NC(=O)CCN4CCCC4)cc3nc3cc(NC(=O)CCN4CCCC4)ccc23)cc1
> 0.316 µM: IC50 (second compound 0.0316 µM) | IC50 (second compound 0.1 µM) | IC50 (second compound 0.316 µM) | IC50 (second compound 1 µM) | IC50 (second compound 3.16 µM) | IC50 (second compound 10 µM)
inactive: viability, T/C (second compound 0.0316 µM, first compound 0.000999 µM) 108% | viability, T/C (second compound 0.0316 µM, first compound 0.00316 µM) 97.2% | viability, T/C (second compound 0.0316 µM, first compound 0.00999 µM) 99.4% | viability, T/C [1] 106% | viability, T/C (second compound 0.0316 µM, first compound 0.0999 µM) 109% | viability, T/C [2] 102% | viability, T/C (second compound 0.1 µM, first compound 0.000999 µM) 102% | viability, T/C (second compound 0.1 µM, first compound 0.00316 µM) 99.9% | viability, T/C (second compound 0.1 µM, first compound 0.00999 µM) 98.6% | viability, T/C [3] 105% | viability, T/C (second compound 0.1 µM, first compound 0.0999 µM) 104% | viability, T/C [4] 101% | viability, T/C (second compound 0.316 µM, first compound 0.000999 µM) 106% | viability, T/C (second compound 0.316 µM, first compound 0.00316 µM) 100% | viability, T/C (second compound 0.316 µM, first compound 0.00999 µM) 98.8% | viability, T/C [5] 97.7% | viability, T/C (second compound 0.316 µM, first compound 0.0999 µM) 105% | viability, T/C [6] 99.7% | viability, T/C (second compound 1 µM, first compound 0.000999 µM) 102% | viability, T/C (second compound 1 µM, first compound 0.00316 µM) 92% | viability, T/C (second compound 1 µM, first compound 0.00999 µM) 96.4% | viability, T/C [7] 96% | viability, T/C (second compound 1 µM, first compound 0.0999 µM) 101% | viability, T/C [8] 94.6% | viability, T/C (second compound 3.16 µM, first compound 0.000999 µM) 90.1% | viability, T/C (second compound 3.16 µM, first compound 0.00316 µM) 81.3% | viability, T/C (second compound 3.16 µM, first compound 0.00999 µM) 84.3% | viability, T/C [9] 85.8% | viability, T/C (second compound 3.16 µM, first compound 0.0999 µM) 90% | viability, T/C [10] 86.5% | viability, T/C (second compound 10 µM, first compound 0.000999 µM) 71.2% | viability, T/C (second compound 10 µM, first compound 0.00316 µM) 77% | viability, T/C (second compound 10 µM, first compound 0.00999 µM) 70.8% | viability, T/C [11] 77.5% | viability, T/C (second compound 10 µM, first compound 0.0999 µM) 75.4% | viability, T/C [12] 71.7%
